Test results as given in the supplement of paper PMC10307832.

Columns and labels:
Experiment in all cases: relative viability (nuclei count vs DMSO), 5 days (fraction); higher = more cells survive
Serdemetan + Trametinib = compound: c1ccc2c(CCNc3ccc(Nc4ccncc4)cc3)c[nH]c2c1 [Serdemetan] + CC(=O)Nc1cccc(-n2c(=O)n(C3CC3)c(=O)c3c(Nc4ccc(I)cc4F)n(C)c(=O)c(C)c32)c1 [Trametinib] (partner 0.02 µM)
Summary of the method: (§1)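 Medians of duplicate plates are given as relative viability. That measure is the nuclei count in treated wells divided by the count in vehicle wells. Counts were taken on 4× images of lung cancer cell lines in 1536-well plates, 5 days after pin-tool dosing the day after seeding with one drug alone or a fixed anchor-drug dose plus five library-drug doses (not always all listed) in √10 steps.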

Serdemetan + Foretinib = compound: c1ccc2c(CCNc3ccc(Nc4ccncc4)cc3)c[nH]c2c1 [Serdemetan] + COc1cc2c(Oc3ccc(NC(=O)C4(C(=O)Nc5ccc(F)cc5)CC4)cc3F)ccnc2cc1OCCCN1CCOCC1 [Foretinib] (partner 0.25 µM)
Summary of the method: as §1

Selisistat + Pemetrexed = compound: C1CC(C2=C(C1)C3=C(N2)C=CC(=C3)Cl)C(=O)N [Selisistat] + Nc1nc2[nH]cc(CCc3ccc(C(=O)N[C@@H](CCC(=O)O)C(=O)O)cc3)c2c(=O)[nH]1 [Pemetrexed] (partner 0.2 µM)
Summary of the method: as §1

Serdemetan + Pemetrexed = compound: c1ccc2c(CCNc3ccc(Nc4ccncc4)cc3)c[nH]c2c1 [Serdemetan] + Nc1nc2[nH]cc(CCc3ccc(C(=O)N[C@@H](CCC(=O)O)C(=O)O)cc3)c2c(=O)[nH]1 [Pemetrexed] (partner 0.2 µM)
Summary of the method: as §1

Cell Line	relative viability (Serdemetan + Trametinib; first compound 0.04 µM)	relative viability (Serdemetan + Trametinib; first compound 0.1265 µM)	relative viability (Serdemetan + Trametinib; first compound 0.4 µM)	relative viability (Serdemetan + Trametinib; first compound 1.265 µM)	relative viability (Serdemetan + Trametinib; first compound 4 µM)	relative viability (Serdemetan + Foretinib; first compound 0.04 µM)	relative viability (Serdemetan + Foretinib; first compound 0.1265 µM)	relative viability (Serdemetan + Foretinib; first compound 0.4 µM)	relative viability (Serdemetan + Foretinib; first compound 1.265 µM)	relative viability (Serdemetan + Foretinib; first compound 4 µM)	relative viability (Selisistat + Pemetrexed; first compound 0.4 µM)	relative viability (Selisistat + Pemetrexed; first compound 1.265 µM)	relative viability (Selisistat + Pemetrexed; first compound 4 µM)	relative viability (Selisistat + Pemetrexed; first compound 12.65 µM)	relative viability (Selisistat + Pemetrexed; first compound 40 µM)	relative viability (Serdemetan + Pemetrexed; first compound 0.04 µM)	relative viability (Serdemetan + Pemetrexed; first compound 0.1265 µM)	relative viability (Serdemetan + Pemetrexed; first compound 0.4 µM)	relative viability (Serdemetan + Pemetrexed; first compound 1.265 µM)	relative viability (Serdemetan + Pemetrexed; first compound 4 µM)
NCI-H460	0.0926	0.172	0.134	0.0472	0.0554	0.895	1.01	0.883	0.597	0.104	0.0578	0.0622	0.0632	0.0572	0.0629	0.0612	0.0565	0.0655	0.0326	0.064
EKVX	0.45	0.396	–	–	0.268	1	0.82	0.424	–	0.858	0.348	0.314	0.361	0.342	0.404	0.335	0.401	–	–	0.376
NCI-H358	0.135	0.144	0.12	0.0947	0.109	0.641	0.773	0.732	0.549	0.477	0.182	0.221	0.158	0.177	0.19	0.173	0.155	0.18	0.148	0.163
EPLC-272H	0.32	0.281	0.28	0.292	0.25	0.881	0.684	0.305	0.459	0.477	0.257	0.315	0.317	0.336	0.284	0.316	0.367	0.342	0.269	0.374
NCI-H1395	0.982	0.954	0.972	0.904	0.586	1	0.969	0.926	0.883	0.571	0.97	0.968	–	0.639	0.908	0.853	0.925	0.886	0.705	0.518
NCI-H2126	0.59	0.557	0.577	0.512	0.604	1.23	1.13	1.03	1.01	1.03	0.716	0.653	0.588	0.68	0.655	0.671	0.707	0.579	0.601	0.78
LXF-289	0.638	0.624	0.652	0.621	0.503	1.02	1.01	0.951	0.62	0.793	0.925	1.04	0.83	0.841	0.959	0.894	0.989	0.86	0.76	0.795
NCI-H2009	0.248	0.284	0.243	0.266	0.281	1.18	1.14	1.16	1.14	0.887	1.13	1.07	1.06	1.04	1.04	1.03	0.89	1.1	0.895	0.892
SW 900	0.636	0.63	0.874	0.8	0.519	0.79	0.552	0.928	0.687	0.821	0.468	0.464	0.461	0.517	0.46	0.461	0.51	0.485	0.324	0.41
NCI-H2405	0.709	0.655	0.64	0.587	0.558	1.03	1.01	1.01	0.902	0.764	0.984	1.04	–	1.01	1.04	1.04	1.02	1.1	0.609	0.983
NCI-H1755	0.762	0.703	0.744	0.572	0.474	0.901	0.934	0.846	0.674	0.599	0.406	0.431	0.524	0.619	0.366	0.575	0.4	0.539	0.512	0.418
HCC-78	0.725	0.731	0.796	0.688	0.552	0.531	0.524	0.463	0.422	0.426	0.917	0.949	0.924	0.774	0.878	0.93	0.879	0.903	0.917	0.915
LOU-NH91	0.782	0.798	–	–	0.839	0.928	0.927	0.63	0.952	0.873	0.329	0.339	0.42	0.395	0.459	0.394	0.383	–	–	0.419
NCI-H3122	0.246	0.238	0.252	0.245	0.206	0.992	0.932	0.972	–	1.01	0.184	0.198	0.187	0.205	0.188	0.182	0.201	0.197	0.178	0.2
HCC-827	0.543	0.603	–	0.359	0.318	0.991	0.948	–	0.594	0.62	0.258	0.266	0.266	0.256	0.251	0.218	0.191	–	0.2	0.227
SK-LU-1	0.485	0.464	0.444	0.332	0.44	0.767	0.745	0.77	–	0.61	0.985	0.981	1.01	0.967	1.03	0.941	0.895	1.07	0.908	0.722
NCI-H1975	0.403	0.381	0.331	0.305	0.371	0.866	0.849	0.982	–	0.987	0.275	0.283	0.3	0.278	0.316	0.279	0.3	0.312	0.309	0.295
